Experimental data taken from patent US20140364431A1, “Quinoline and cinnoline derivatives and their applications” (Shenyang Pharmaceutical University, priority 2011, published 2014).
Converted amounts (≈) assume the structure as drawn. Where two headings read alike, the source gives them in different places.

Assays:
[1] = test system: H460 (human lung cancer cell); experiment: In vitro anti-tumor cellular activity (MTT), H460; type: cell-based; details: for IC50: Homo sapiens, read-out: H460 IC50
[2] = test system: MKN-45 (human gastric carcinoma cell); experiment: In vitro anti-tumor cellular activity (MTT), MKN-45; type: cell-based; details: for IC50: Homo sapiens, read-out: MKN-45 IC50
[3] = test system: SMMC-7721 (hepatoma cell); experiment: In vitro anti-tumor cellular activity (MTT), SMMC-7721; type: cell-based, human; details: for IC50: Homo sapiens, read-out: SMMC-7721 IC50
[4] = test system: HT-29 (colon cancer cell); experiment: In vitro anti-tumor cellular activity (MTT), HT-29; type: cell-based, human; details: for IC50: Homo sapiens, read-out: HT-29 IC50
[5] = target: T1, c-Met (His-tagged recombinant human Met (Amino acids 974-ends)) (Homo sapiens, UniProt P08581); experiment: c-Met kinase assay (ELISA); type: biochemical; details: 50 pM c-Met, 5 μM ATP, 20 min
T1 construct: His-tagged recombinant human Met (Amino acids 974-ends); His; host or cells: baculovirus expression
Procedure: c-Met kinase activity was measured with an ELISA reader.
The reaction mixture was removed by washing with 0.2 μg/mL conjugated horseradish peroxidase (HRP) monoclonal antibody specific for phosphotyrosine (PY20) detecting phosphorylation of the substrate polymer. 1M phosphoric acid was added to terminate the color, the chromogenic substrate (TMB) was tested by spectrophotometry at 450 nm.

[6] = test system: U87MG (Human malignant glioblastoma cells); experiment: In vitro anti-tumor cellular activity (MTT), U87MG; type: cell-based; details: for IC50: Homo sapiens, U-87 MG, read-out: U87MG IC50
[7] = test system: human tumor cell lines (such as human lung cancer cells, human gastric cancer cells, etc.); details: cited from earlier work

T1 sequence (P08581 974-1390 limits assumed): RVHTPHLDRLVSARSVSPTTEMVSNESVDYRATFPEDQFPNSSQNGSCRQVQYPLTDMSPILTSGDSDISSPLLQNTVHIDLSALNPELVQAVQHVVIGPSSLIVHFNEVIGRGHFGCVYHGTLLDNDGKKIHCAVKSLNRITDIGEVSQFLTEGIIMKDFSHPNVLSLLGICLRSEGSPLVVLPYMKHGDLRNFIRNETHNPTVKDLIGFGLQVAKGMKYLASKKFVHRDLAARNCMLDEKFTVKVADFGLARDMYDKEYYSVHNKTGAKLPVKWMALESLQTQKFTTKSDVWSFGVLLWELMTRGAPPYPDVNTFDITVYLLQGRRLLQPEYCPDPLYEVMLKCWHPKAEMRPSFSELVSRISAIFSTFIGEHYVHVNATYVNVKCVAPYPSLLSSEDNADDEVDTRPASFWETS

IC50 ([1]; NCI-H460, MTT, 72 hours, H460) | IC50 ([2]; MTT, 72 hours, MKN-45) | IC50 ([3]; MTT, 72 hours, SMMC-7721) | IC50 ([4]; MTT, 72 hours, HT-29) | IC50 [5] | IC50 ([6]; MTT, 72 hours, U87MG) | Molecule | H460 IC50 ([1]; MTT, 72 hours, H460) | MKN-45 IC50 ([2]; MTT, 72 hours, MKN-45) | SMMC-7721 IC50 ([3]; MTT, 72 hours, SMMC-7721) | HT-29 IC50 ([4]; MTT, 72 hours, HT-29) | c-Met IC50 [5] | U87MG IC50 ([6]; MTT, 72 hours, U87MG) | other results
1.4 µg/mL (≈ 1.98 µM) | 0.67 µg/mL (≈ 0.949 µM) | 1.8 µg/mL (≈ 2.55 µM) | 1.1 µg/mL (≈ 1.56 µM) | 2.27 µM | 0.87 µg/mL (≈ 1.23 µM) | COc1cc2c(Oc3ccc(NC(=O)c4cn(-c5ccccc5F)c5ccccc5c4=O)cc3F)ccnc2cc1OCCCN1CCN(C)CC1 [Example 52, N-(3-fluoro-4-((6-methoxy-7-(3-(4-methylpiperazin-1-yl)propoxy)quinolin-4-yl)oxy)phenyl)-1-(2-fluorophenyl)-4-oxo-1,4-dihydroquinoline-3-carboxamide] |  |  |  |  |  |  | 
0.79 µg/mL (≈ 1.12 µM) | 0.47 µg/mL (≈ 0.665 µM) | 0.29 µg/mL (≈ 0.41 µM) | 0.93 µg/mL (≈ 1.32 µM) | 0.707 µM | 0.21 µg/mL (≈ 0.297 µM) | COc1cc2c(Oc3ccc(NC(=O)c4cn(-c5ccccc5Cl)c5ccccc5c4=O)cc3F)ccnc2cc1OCCCN1CCCCC1 [Example 53, N-(3-fluoro-4-((6-methoxy-7-(3-(piperidin-1-yl)propoxy)quinolin-4-yl)oxy)phenyl)-1-(2-chlorophenyl)-4-oxo-1,4-dihydroquinoline-3-carboxamide] |  |  |  |  |  |  | 
0.63 µg/mL (≈ 0.874 µM) | 0.49 µg/mL (≈ 0.679 µM) | 0.52 µg/mL (≈ 0.721 µM) | 0.63 µg/mL (≈ 0.874 µM) | 0.971 µM | 0.14 µg/mL (≈ 0.194 µM) | COc1cc2c(Oc3ccc(NC(=O)c4cn(-c5ccccc5Cl)c5ccccc5c4=O)cc3F)ccnc2cc1OCCCN1CCC(C)CC1 [Example 54, N-(3-fluoro-4-((6-methoxy-7-(3-(4-methylpiperidin-1-yl)propoxy)quinolin-4-yl)oxy)phenyl)-1-(2-chlorophenyl)-4-oxo-1,4-dihydroquinoline-3-carboxamide] |  |  |  |  |  |  | 
0.75 µg/mL (≈ 1.04 µM) | 0.21 µg/mL (≈ 0.291 µM) | 0.74 µg/mL (≈ 1.02 µM) | 0.2 µg/mL (≈ 0.277 µM) | 0.138 µM | 0.12 µg/mL (≈ 0.166 µM) | COc1cc2c(Oc3ccc(NC(=O)c4cn(-c5ccccc5Cl)c5ccccc5c4=O)cc3F)ccnc2cc1OCCCN1CCN(C)CC1 [Example 56, N-(3-fluoro-4-((6-methoxy-7-(3-(4-methylpiperazin-1-yl)propoxy)quinolin-4-yl)oxy)phenyl)-1-(2-chlorophenyl)-4-oxo-1,4-dihydroquinoline-3-carboxamide] |  |  |  |  |  |  | 
1.3 µg/mL (≈ 1.72 µM) | 0.91 µg/mL (≈ 1.21 µM) | 0.58 µg/mL (≈ 0.768 µM) | 0.87 µg/mL (≈ 1.15 µM) | 1.06 µM | 1.1 µg/mL (≈ 1.46 µM) | COc1cc2c(Oc3ccc(NC(=O)c4cn(-c5ccccc5C(F)(F)F)c5ccccc5c4=O)cc3F)ccnc2cc1OCCCN1CCC(C)CC1 [Example 57, N-(3-fluoro-4-((6-methoxy-7-(3-(4-methylpiperidin-1-yl)propoxy)quinolin-4-yl)oxy)phenyl)-4-oxo-1-(2-(trifluoromethyl)phenyl)-1,4-dihydroquinoline-3-carboxamide] |  |  |  |  |  |  | 
0.89 µg/mL (≈ 1.25 µM) | 2.4 µg/mL (≈ 3.37 µM) | 1.7 µg/mL (≈ 2.39 µM) | 1.4 µg/mL (≈ 1.97 µM) | 0.562 µM | 2.1 µg/mL (≈ 2.95 µM) | COc1cc2c(Oc3ccc(NC(=O)c4nn(-c5ccc(Cl)cc5)c5ccccc5c4=O)cc3F)cnnc2cc1OCCCN1CCOCC1 [Example 66, N-(3-fluoro-4-((6-methoxy-7-(3-(morpholin-4-yl)propoxy)cinnolin-4-yl)oxy)phenyl)-1-(4-chlorophenyl)-4-oxo-1,4-dihydrocinnoline-3-carboxamide] |  |  |  |  |  |  | 
2.5 µg/mL (≈ 3.46 µM) | 2.2 µg/mL (≈ 3.04 µM) | 1.6 µg/mL (≈ 2.21 µM) | 0.96 µg/mL (≈ 1.33 µM) | 1.52 µM | 1.7 µg/mL (≈ 2.35 µM) | COc1cc2c(Oc3ccc(NC(=O)c4nn(-c5ccc(Cl)cc5)c5ccccc5c4=O)cc3F)cnnc2cc1OCCCN1CCC(C)CC1 [Example 67, N-(3-fluoro-4-((6-methoxy-7-(3-(4-methylpiperidin-1-yl)propoxy)cinnolin-4-yl)oxy)phenyl)-1-(4-chlorophenyl)-4-oxo-1,4-dihydrocinnoline-3-carboxamide] |  |  |  |  |  |  | 
1.5 µg/mL (≈ 1.94 µM) | 2.5 µg/mL (≈ 3.23 µM) | 2.9 µg/mL (≈ 3.75 µM) | 2.1 µg/mL (≈ 2.71 µM) | 1.16 µM | 1.3 µg/mL (≈ 1.68 µM) | COc1cc2c(Oc3ccc(NC(=O)c4nn(-c5ccc(Br)cc5F)c5ccccc5c4=O)cc3F)cnnc2cc1OCCCN1CCOCC1 [Example 68, N-(3-fluoro-4-((6-methoxy-7-(3-(morpholin-4-yl)propoxy)cinnolin-4-yl)oxy)phenyl)-1-(4-bromo-2-fluorophenyl)-4-oxo-1,4-dihydrocinnoline-3-carboxamide] |  |  |  |  |  |  | 
2.3 µg/mL (≈ 3.25 µM) | 2.6 µg/mL (≈ 3.67 µM) | 1.3 µg/mL (≈ 1.84 µM) | 2.1 µg/mL (≈ 2.97 µM) | 1.55 µM | 1.8 µg/mL (≈ 2.54 µM) | COc1cc2c(Oc3ccc(NC(=O)c4nn(-c5ccc(F)cc5)c5ccccc5c4=O)cc3F)cnnc2cc1OCCCN1CCN(C)CC1 [Example 69, N-(3-fluoro-4-((6-methoxy-7-(3-(4-methylpiperazin-1-yl)propoxy)cinnolin-4-yl)oxy)phenyl)-1-(4-fluorophenyl)-4-oxo-1,4-dihydrocinnoline-3-carboxamide] |  |  |  |  |  |  | 
 |  |  |  |  |  | COc1cc2c(Oc3ccc(NC(=O)C4(C(=O)Nc5ccc(F)cc5)CC4)cc3F)ccnc2cc1OCCCN1CCOCC1 [Foretinib] |  |  |  |  |  |  | IC50 against a variety of human tumor cell lines [7]: 0.004 µg/mL
 |  |  |  |  |  | N-(3-fluoro-4-((6-methoxy-7-(3-(4-methylpiperazin-1-yl)propoxy)quinolin-4-yl)oxy)phenyl)-1-(2-(trifluoromethyl)phenyl)-4-oxo-1,4-dihydrocinnoline-3-carboxamide [Example 44] | 1.6 µg/mL | 1.8 µg/mL | 2.1 µg/mL | 1.2 µg/mL | 1.1 µg/mL | 0.84 µg/mL | 
 |  |  |  |  |  | N-(3-fluoro-4-((6-methoxy-7-(3-(4-methylpiperazin-1-yl)propoxy)quinolin-4-yl)oxy)phenyl)-1-(2-chlorophenyl)-4-oxo-1,4-dihydrocinnoline-3-carboxamide dihydrochloride [Example 17] | 1.4 µg/mL | 2.1 µg/mL | 0.5 µg/mL | 1.8 µg/mL | 0.2 µg/mL | 0.9 µg/mL | 
 |  |  |  |  |  | N-(3-fluoro-4-((6-methoxy-7-(3-(4-methylpiperidin-1-yl)propoxy)quinolin-4-yl)oxy)phenyl)-1-(2-chlorophenyl)-4-oxo-1,4-dihydrocinnoline-3-carboxamide dihydrochloride [Example 15] | 1 µg/mL | 0.8 µg/mL | 1.5 µg/mL | 0.6 µg/mL | 0.66 µg/mL | 0.2 µg/mL | 
 |  |  |  |  |  | N-(3-fluoro-4-((6-methoxy-7-(3-(4-methylpiperidin-1-yl)propoxy)quinolin-4-yl)oxy)phenyl)-1-(3,4-difluorophenyl)-4-oxo-1,4-dihydroquinoline-3-carboxamide [Example 58] | 1.4 µg/mL | 1.8 µg/mL | 1.1 µg/mL | 0.95 µg/mL | 0.72 µg/mL | 2.1 µg/mL | 
 |  |  |  |  |  | N-(3-fluoro-4-((6-methoxy-7-(3-(piperidin-1-yl)propoxy)quinolin-4-yl)oxy)phenyl)-1-(2-fl uorophenyl)-4-oxo-1,4-dihydrocinnoline-3-carboxamide [Example 7] | 1.7 µg/mL | 1.4 µg/mL | 0.63 µg/mL | 0.82 µg/mL | 0.5 µg/mL | 1.5 µg/mL | 
 |  |  |  |  |  | N-(3-fluoro-4-((6-methoxy-7-(3-(piperidin-1-yl)propoxy)quinolin-4-yl)oxy)phenyl)-1-(4-fl uorophenyl)-4-oxo-1,4-dihydroquinoline-3-carboxamide dihydrochloride [Example 49] | 1.1 µg/mL | 0.76 µg/mL | 0.99 µg/mL | 1.3 µg/mL | 0.6 µg/mL | 0.9 µg/mL | 
 |  |  |  |  |  | N-(3-fluoro-4-((6-methoxy-7-(3-(pyrrolidin-1-yl)propoxy)quinolin-4-yl)oxy)phenyl)-1-(2-c hlorophenyl)-4-oxo-1,4-dihydrocinnoline-3-carboxamide dihydrochloride [Example 16] | 0.69 µg/mL | 1.1 µg/mL | 0.45 µg/mL | 0.57 µg/mL | 0.9 µg/mL | 0.2 µg/mL | 

Molecule | IC50 ([1]; NCI-H460, MTT, 72 hours, H460) | IC50 ([2]; MTT, 72 hours, MKN-45) | IC50 ([3]; MTT, 72 hours, SMMC-7721) | IC50 ([4]; MTT, 72 hours, HT-29) | IC50 [5] | IC50 ([6]; MTT, 72 hours, U87MG) | H460 IC50 ([1]; MTT, 72 hours, H460) | MKN-45 IC50 ([2]; MTT, 72 hours, MKN-45) | SMMC-7721 IC50 ([3]; MTT, 72 hours, SMMC-7721) | HT-29 IC50 ([4]; MTT, 72 hours, HT-29) | c-Met IC50 [5] | U87MG IC50 ([6]; MTT, 72 hours, U87MG) | other results
COc1cc2c(Oc3ccc(NC(=O)c4cn(-c5ccccc5Cl)c5ccccc5c4=O)cc3F)ccnc2cc1OCCCN1CCCC1 [Example 55, N-(3-fluoro-4-((6-methoxy-7-(3-(pyrrolidin-1-yl)propoxy)quinolin-4-yl)oxy)phenyl)-1-(2-chlorophenyl)-4-oxo-1,4-dihydroquinoline-3-carboxamide] |  |  |  |  | 1.3 µM |  |  |  |  |  |  |  | IC50 ([1]; NCI-H460, 72 h): 0.74 µg/mL (≈ 1.07 µM); IC50 ([2]; MKN-45, 72 h): 0.29 µg/mL (≈ 0.418 µM); IC50 ([3]; SMMC-7721, 72 h): 0.53 µg/mL (≈ 0.765 µM); IC50 ([4]; HT-29, 72 h): 0.37 µg/mL (≈ 0.534 µM); IC50 ([6]; 72 h): 0.18 µg/mL (≈ 0.26 µM)
